Test results taken from paper PMC8165744, “Identification of an Alternative Glycyrrhizin Metabolite Causing Liquorice-Induced Pseudohyperaldosteronism and the Development of ELISA System to Detect the Predictive Biomarker” (Frontiers in Pharmacology, 2021).
Where two headings read alike, the source gives them in different places.

Tests used:
[1] = biological target: T1, rat type-2 11β-hydroxysteroid dehydrogenase (11β-HSD2) (Rattus norvegicus, UniProt P50233); experiment: in vitro 11β-HSD2 activity using rat kidney microsomes; assay type: biochemical; conditions: rat kidney microsome fraction, 37°C, 30 min
T1 construct: from tissue; host or cells: rat kidney microsome fraction
T1 sequence (P50233 1-400): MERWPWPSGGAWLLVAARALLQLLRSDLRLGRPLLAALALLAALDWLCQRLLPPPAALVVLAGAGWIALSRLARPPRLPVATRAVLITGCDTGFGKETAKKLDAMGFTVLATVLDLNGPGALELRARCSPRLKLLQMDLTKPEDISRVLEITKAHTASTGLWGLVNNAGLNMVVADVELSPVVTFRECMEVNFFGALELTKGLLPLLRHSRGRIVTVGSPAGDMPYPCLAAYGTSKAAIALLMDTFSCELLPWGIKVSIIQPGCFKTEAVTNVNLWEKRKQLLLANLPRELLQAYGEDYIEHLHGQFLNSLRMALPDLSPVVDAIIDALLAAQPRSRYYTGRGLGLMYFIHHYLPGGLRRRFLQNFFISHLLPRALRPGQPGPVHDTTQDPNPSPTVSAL
Method: Determination of in vitro 11β-HSD2 Activity Using Rat Kidney Microsomes
Then, the amount of [^3H] cortisol was measured. […] Kidneys were collected from normal Sprague-Dawley (SD) rats and slices were incubated with plasma samples of female EHBRs at 37°C or 4°C for 2 h, and then homogenized. […] HEK293 cells transfected with OAT1 or OAT3 were incubated with 1:2 diluted plasma samples of male EHBRs at 37°C for 15 min. Then, concentrations of 4 in cells were measured using LC-MS/MS.

[2] = pharmacokinetics of GA metabolites in EHBRs orally treated with GA; assay type: in vivo, Eisai hyperbilirubinuria rats (EHBRs); conditions: Eisai hyperbilirubinuria rat (EHBR), rat, plasma, 200 mg/kg, GA 0.20 g/kg oral, read-out: plasma concentration 12 h after oral administration of GA
Method: Pharmacokinetic Experiments of GA Metabolites in EHBRs Orally Treated With GA
Male and female EHBRs (9 week-old) were anaesthetized by an intraperitoneal injection of urethane (1 g/kg) and their jugular veins were exposed. GA suspended in 0.5% carboxymethylcellulose was then administered orally (200 mg/kg) to the unconscious rats, and blood samples were collected from the jugular vein while urine samples were collected using a metabolic cage at appropriate times over a 12 h period.
LC-MS/MS Analysis for GA Metabolites
(§1) Briefly, after diluting serum and urine samples with water to obtain suitable concentrations, they were digested with subtilisin (0.91 U/ml), followed by the addition of astragaloside IV (used as an internal standard; Fujifilm Wako Pure Chemicals, Osaka, Japan), and deproteinized using 80% ethanol. […] The transitions (precursor to daughter) monitored and retention times were as follows: ESI(+), 743.4 to 567.5 m/z (35 and 25 V for cone voltage and collision energy, respectively) for compound 1 (8.1 min); ESI(–), 565.5 to 96.5 m/z (80 and 60 V) for 2 (9.6 min); ESI(–), 549.5 to 96.5 m/z (80 and 60 V) for 3 (15.4 min); ESI(+), 727.3 to 551.2 m/z (30 and 25 V) for 4 (11.3 min); ESI(+), 647.6 to 453.6 m/z (40 and 20 V) for 3MGA (15.0 min); ESI(+), 471.3 to 91.0 m/z (40 and 20 V) for GA (13.4 min); ESI(+), 823.5 to 453.6 m/z (30 and 20 V) for GL (18.4 min); and ESI(+), 785.4 to 143.0 m/z (30 and 20 V) for astragaloside IV (3.0 min). Linear regressions over the concentration range of 2 nM to 2 µM for each compound were examined using the peak-area ratio of the compounds to their internal standards and the least-squares method (r ^ 2 > 0.98). The detection limits for 1, GL, and GA were 6.4 nM, and those for 2, 3, and 4, and 3MGA were 3.2 nM.
FIGURE 5 Pharmacokinetic profiles of glycyrrhizin (GL) metabolites in female (A–C) and male (D–F) Eisai hyperbilirubinuria rats (EHBRs). […] Data of GA, 3MGA, 1, 2, and 3 in (A) and GA, 3MGA, 2, and 3 for (D) are relatively small; their magnified graphs are shown in (B,E), respectively. Concentrations of GA metabolites were measured using liquid chromatography-tandem mass spectrometry (LC-MS/MS), and data are means ± standard error (S.E: n = 4).

[3] = elimination of GA metabolites in SD rats intravenously injected with GA; assay type: in vivo, Sprague-Dawley (SD) rats; conditions: female SD rats
Excerpt: as §1
FIGURE 6 Elimination of glycyrrhizin (GL) metabolites into bile in Sprague-Dawley (SD) rats. Female SD rats (10 week-old) were anesthetized using intraperitoneal injection of urethane (1 g/kg), and biliary tracts were cannulated. […] Concentrations of GA metabolites were measured using liquid chromatography-tandem mass spectrometry (LC-MS/MS) and accumulated elimination of GA-metabolites are means ± standard error (S.E: n = 3).

[4] = measurement of GL metabolites in human serum and urine samples (LC-MS/MS); assay type: in vivo
Method: Measurement of Compound 4 in Human Serum Samples
Human serum samples (100 µl) were pre-treated as described in the protocol reported in our previous study ([Takahashi et al., 2019]), and the concentration of 4 was measured using LC-tandem mass spectrometry (MS/MS) as described below. This study was conducted with the approval of the appropriate ethics committee at Keio University, Chiba University, Kanazawa University, and Kameda Medical Center.
as §1

[5] = relationship of serum concentration of compound 4 with laboratory markers and symptoms of pseudohyperaldosteronism; assay type: in vivo, human
Excerpt: Evaluation of the Pathological Relationship Between Compound 4 and Pseudohyperaldosteronism Pathology
We recorded the following available clinical symptoms and laboratory data when blood samples were drawing from patients: age, sex, complications, concomitant medications, daily liquorice dose, duration of administration of liquorice-containing herbal preparations, symptoms (blood pressure and pedal oedema), and laboratory test values, namely: total protein, albumin, total and direct bilirubin, aspartate amino transferase, alanine amino transferase, blood urea nitrogen, creatinine, sodium, potassium, chloride, calcium, magnesium, prothrombin time, plasma renin activity or activated renin concentration, and plasma aldosterone concentration (blood test data), and urine concentrations of potassium and creatinine (urinalysis data). Samples were processed according to the individual institutional protocols, and all data were measured at each institution.
FIGURE 3 Concentration of 4 in human serum samples and three or laboratory markers (A) Strong positive correlation was identified between serum concentrations of 3 and 4.

[6] = pharmacokinetics of GA metabolites in EHBRs orally treated with GA; assay type: in vivo, Eisai hyperbilirubinuria rats (EHBRs); conditions: Eisai hyperbilirubinuria rat (EHBR), plasma, oral GA 200 mg/kg, 24 h after treatment, read-out: concentration in plasma sample

## CC1(C)[C@@H](OS(=O)(=O)O)CC[C@]2(C)[C@H]3C(=O)C=C4[C@@H]5C[C@@](C)(C(=O)O[C@@H]6O[C@H](C(=O)O)[C@@H](O)[C@H](O)[C@H]6O)CC[C@]5(C)CC[C@@]4(C)[C@]3(C)CC[C@@H]12 [Compound 4, 18β-glycyrrhetyl-3-O-sulfate-30-O-glucuronide]
[1]
  IC50: 380 nM
[2]; female EHBRs
  concentration at 12 h: 208 µM
[2]; male EHBRs
  concentration at 12 h: 237 µM
[3]; GA 0.2 mg/kg iv, bile collected for 4 h
  accumulation in the bile: the highest
[3]; GA iv, faeces collected 24 h after injection
  accumulative elimination in faeces: below detectable levels
[4]; human serum, patients with suspected pseudohyperaldosteronism
  serum concentration of 4 relative to that of 3 (fold lower): approximately 10 fold
[4]; human, one urine sample among 20 available samples
  concentration in urine: 0.003 µM
[4]; of 70 participants taking liquorice-containing herbal preparations
  number of serum samples in which compound was detected: 62 samples
[5]; blood pressure, oedema
  relationship with clinical symptoms: not significant
[5]; human serum samples
  correlation of serum concentration with plasma renin activity and aldosterone concentration: negative correlations
  serum potassium concentration in participants with higher serum concentrations: tended to be lower
[6]; female EHBRs
  concentration at 24 h: 115 µM
[6]; male EHBRs
  concentration at 24 h: 189 µM
